Molecules are shown by their SMILES. pEC50: −log10 of the molar value. Counter-ions that a name gives are not always drawn. A value given as a limit tells only on which side of the number the result lay.

For this experiment, the system named is NQO1 specific enzyme activity in BEAS-2B cells. The experiment in a line: BEAS-2B NQO1 MTT assay. The format is cell-based. The settings on record: Homo sapiens, BEAS-2B, 48 h, NQO1 specific enzyme activity induction in BEAS-2B cells, 48 hours; read-out: EC50. Put shortly: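 BEAS-2B cells exposed to compound 48 h at 37° C, 5% CO2, then lysed. NQO1 activity read kinetically in lysate with MTT cocktail (absorbance 570 nm, 30 min); Cell Titer Glo run on a lysate aliquot. pEC50 from ΔOD/min versus log concentration, 3-parameter fit.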
Regarding `CCn1nnc(CCC(c2ccc3c(c2)C(N2Cc4ccccc4OC(C)(C)C2)CC3)C(C)(C)C(=O)O)n1` (centres unmarked) [Example 64, 3-(3-(2,2-dimethyl-2,3-dihydrobenzo[f][1,4]oxazepin-4(5H)-yl)-2,3-dihydro-1H-inden-5-yl)-5-(2-ethyl-2H-tetrazol-5-yl)-2,2-dimethylpentanoic Acid, Trifluoroacetic Acid Salt], the negative logarithm of the EC50 (pEC50) is 7.00 to 8.00.

As to `CCCc1cn(CCC(c2ccc3c(c2)C(N2Cc4ccccc4OC(C)(C)C2)CC3)C(C)(C)C(=O)O)nn1` (centres unmarked) [Example 65, 3-(3-(2,2-Dimethyl-2,3-dihydrobenzo[f][1,4]oxazepin-4(5H)-yl)-2,3-dihydro-1H-inden-5-yl)-2,2-dimethyl-5-(4-propyl-1H-1,2,3-triazol-1-yl)pentanoic Acid, Trifluoroacetic Acid Salt], the pEC50 was 7.00 to 8.00.

With `Cc1c(C(CC(=O)O)c2ccc3c(c2)C(N2Cc4ccccc4O[C@H](C)C2)CCC3)ccc2c1nnn2C` (stereo partly drawn) [Example 66, 3-(1,4-Dimethyl-1H-benzo[d][1,2,3]triazol-5-yl)-3-(8-((R)-2-methyl-2,3-dihydrobenzo[f][1,4]oxazepin-4(5H)-yl)-5,6,7,8-tetrahydronaphthalen-2-yl)propanoic Acid], the pEC50 was 6.00 to 7.00.

As to `Cc1c([C@H](c2ccc3c(c2)[C@H](N2Cc4cnccc4OC(C)(C)C2)CC3)C(C)(C)C(=O)O)ccc2c1nnn2C` [Example 86, 3-(1,4-Dimethyl-1H-benzo[d][1,2,3]triazol-5-yl)-3-(3-(2,2-dimethyl-2,3-dihydropyrido[3,4-f][1,4]oxazepin-4(5H)-yl)-2,3-dihydro-1H-inden-5-yl)-2,2-dimethylpropanoic Acid], the pEC50 is over 9.00.

`CC[C@@H]1CN(C2CCc3ccc(C(CCc4cn(CC)nn4)C(C)(C)C(=O)O)cc32)Cc2cnccc2O1` (stereo partly drawn) [Example 87, 5-(1-Ethyl-1H-1,2,3-triazol-4-yl)-3-(3-((R)-2-ethyl-2,3-dihydropyrido[3,4-f][1,4]oxazepin-4(5H)-yl)-2,3-dihydro-1H-inden-5-yl)-2,2-dimethylpentanoic Acid]: the pEC50 is 7.00 to 8.00.

Usually pEC50 stands for −log10 of the EC50, conventionally taken in molar units.

The values are drawn from patent US10272095B2 (GlaxoSmithKline Intellectual Property Development Limited, priority 2015, dated 2019).
